Measured values taken from patent US9738634B2, “Heterocyclic amide compound and herbicide” (SYNGENTA PARTICIPATIONS AG, priority 2013, dated 2017).

What was measured:
Assay type in all cases: in vivo
[1] = test system: barnyard grass; experiment: Test Example 1: weedkilling efficacy, preemergent weed treatment in the submerged state; A: barnyard grass; settings: treatment dosage 252 g/ha
How it was run: (§1)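 Pots of alluvial soil were flooded to a 4 cm depth. Mixed weed seeds were sown and 2.5 leaf-stage rice seedlings transplanted. On sowing day, water-diluted emulsion was applied to the water surface (dose in g/ha). After 3 weeks at 25–30 °C, effects were rated.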

[2] = test system: bulrush; experiment: Test Example 1: weedkilling efficacy, preemergent weed treatment in the submerged state; B: bulrush; settings: treatment dosage 252 g/ha
How it was run: as §1

[3] = test system: oval-leafed pondweed; experiment: Test Example 1: weedkilling efficacy, preemergent weed treatment in the submerged state; C: oval-leafed pondweed; settings: treatment dosage 252 g/ha
How it was run: as §1

[4] = test system: transplanted rice; experiment: Test Example 1: preemergent weed treatment in the submerged state, effect on crop; a: transplanted rice; settings: treatment dosage 252 g/ha
How it was run: as §1

[5] = test system: barnyard grass; experiment: Test Example 2: weedkilling efficacy, growth period weed treatment in the submerged state; A: barnyard grass; settings: treatment dosage 252 g/ha
How it was run: (§2)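 Weeds treated at the 1-2 leaf stage by application of diluted emulsion onto floodwater (4 cm depth, alluvial soil) at specified g/ha. Grown in greenhouse at 25 to 30° C; herbicidal effect rated three weeks after treatment.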

[6] = test system: bulrush; experiment: Test Example 2: weedkilling efficacy, growth period weed treatment in the submerged state; B: bulrush; settings: treatment dosage 252 g/ha
How it was run: as §2

[7] = test system: oval-leafed pondweed; experiment: Test Example 2: weedkilling efficacy, growth period weed treatment in the submerged state; C: oval-leafed pondweed; settings: treatment dosage 252 g/ha
How it was run: as §2

[8] = test system: crabgrass; experiment: Test Example 3: weedkilling efficacy through soil treatment; D: crabgrass; settings: treatment dosage 315 g/ha
How it was run: (§3)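 Crop and weed responses were judged three weeks after a uniform surface spray of the water-diluted emulsion at the given g/ha rate. Seeds sat beneath about 1.5 cm of sterilized diluvial soil, and boxes stood in a greenhouse at 25 to 30° C.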

[9] = test system: green foxtail; experiment: Test Example 3: weedkilling efficacy through soil treatment; E: green foxtail; settings: treatment dosage 315 g/ha
How it was run: as §3

[10] = test system: wild oat; experiment: Test Example 3: weedkilling efficacy through soil treatment; G: wild oat; settings: treatment dosage 315 g/ha
How it was run: as §3

[11] = test system: black-grass; experiment: Test Example 3: weedkilling efficacy through soil treatment; H: black-grass; settings: treatment dosage 315 g/ha
How it was run: as §3

[12] = test system: Italian ryegrass; experiment: Test Example 3: weedkilling efficacy through soil treatment; I: Italian ryegrass; settings: treatment dosage 315 g/ha
How it was run: as §3

[13] = test system: Indian mallow; experiment: Test Example 3: weedkilling efficacy through soil treatment; K: Indian mallow; settings: treatment dosage 315 g/ha
How it was run: as §3

[14] = test system: redroot pigweed; experiment: Test Example 3: weedkilling efficacy through soil treatment; L: redroot pigweed; settings: treatment dosage 315 g/ha
How it was run: as §3

[15] = test system: fig-leafed goosefoot; experiment: Test Example 3: weedkilling efficacy through soil treatment; M: fig-leafed goosefoot; settings: treatment dosage 315 g/ha
How it was run: as §3

[16] = test system: chickweed; experiment: Test Example 3: weedkilling efficacy through soil treatment; N: chickweed; settings: treatment dosage 315 g/ha
How it was run: as §3

[17] = test system: catchweed; experiment: Test Example 3: weedkilling efficacy through soil treatment; O: catchweed; settings: treatment dosage 315 g/ha
How it was run: as §3

[18] = test system: birds-eye speedwell; experiment: Test Example 3: weedkilling efficacy through soil treatment; p: birds-eye speedwell; settings: treatment dosage 315 g/ha
How it was run: as §3

[19] = test system: directly sown rice; experiment: Test Example 3: soil treatment, effect on crop; b: directly sown rice; settings: treatment dosage 315 g/ha
How it was run: as §3

[20] = test system: corn; experiment: Test Example 3: soil treatment, effect on crop; c: corn; settings: treatment dosage 315 g/ha
How it was run: as §3

[21] = test system: soybean; experiment: Test Example 3: soil treatment, effect on crop; d: soybean; settings: treatment dosage 315 g/ha
How it was run: as §3

[22] = test system: wheat; experiment: Test Example 3: soil treatment, effect on crop; e: wheat; settings: treatment dosage 315 g/ha
How it was run: as §3

[23] = test system: beet; experiment: Test Example 3: soil treatment, effect on crop; f: beet; settings: treatment dosage 315 g/ha
How it was run: as §3

[24] = test system: crabgrass; experiment: Test Example 4: weedkilling efficacy by foliar treatment; D: crabgrass; settings: treatment dosage 315 g/ha
How it was run: (§4)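 Seeds are spot-sown into sterilized diluvial soil and covered with about 1.5 cm of soil. After 14 days' greenhouse growth at 25 to 30° C, plants are sprayed on stems and leaves with diluted emulsion at the stated g/ha rate, then scored at 3 weeks.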

[25] = test system: green foxtail; experiment: Test Example 4: weedkilling efficacy by foliar treatment; E: green foxtail; settings: treatment dosage 315 g/ha
How it was run: as §4

[26] = test system: wild oat; experiment: Test Example 4: weedkilling efficacy by foliar treatment; G: wild oat; settings: treatment dosage 315 g/ha
How it was run: as §4

[27] = test system: black-grass; experiment: Test Example 4: weedkilling efficacy by foliar treatment; H: black-grass; settings: treatment dosage 315 g/ha
How it was run: as §4

[28] = test system: Italian ryegrass; experiment: Test Example 4: weedkilling efficacy by foliar treatment; I: Italian ryegrass; settings: treatment dosage 315 g/ha
How it was run: as §4

[29] = test system: Indian mallow; experiment: Test Example 4: weedkilling efficacy by foliar treatment; K: Indian mallow; settings: treatment dosage 315 g/ha
How it was run: as §4

[30] = test system: redroot pigweed; experiment: Test Example 4: weedkilling efficacy by foliar treatment; L: redroot pigweed; settings: treatment dosage 315 g/ha
How it was run: as §4

[31] = test system: fig-leafed goosefoot; experiment: Test Example 4: weedkilling efficacy by foliar treatment; M: fig-leafed goosefoot; settings: treatment dosage 315 g/ha
How it was run: as §4

[32] = test system: chickweed; experiment: Test Example 4: weedkilling efficacy by foliar treatment; N: chickweed; settings: treatment dosage 315 g/ha
How it was run: as §4

[33] = test system: catchweed; experiment: Test Example 4: weedkilling efficacy by foliar treatment; O: catchweed; settings: treatment dosage 315 g/ha
How it was run: as §4

[34] = test system: birds-eye speedwell; experiment: Test Example 4: weedkilling efficacy by foliar treatment; p: birds-eye speedwell; settings: treatment dosage 315 g/ha
How it was run: as §4

[35] = test system: directly sown rice; experiment: Test Example 4: foliar treatment, effect on crop; b: directly sown rice; settings: treatment dosage 315 g/ha
How it was run: as §4

[36] = test system: corn; experiment: Test Example 4: foliar treatment, effect on crop; c: corn; settings: treatment dosage 315 g/ha
How it was run: as §4

[37] = test system: soybean; experiment: Test Example 4: foliar treatment, effect on crop; d: soybean; settings: treatment dosage 315 g/ha
How it was run: as §4

[38] = test system: wheat; experiment: Test Example 4: foliar treatment, effect on crop; e: wheat; settings: treatment dosage 315 g/ha
How it was run: as §4

[39] = test system: beet; experiment: Test Example 4: foliar treatment, effect on crop; f: beet; settings: treatment dosage 315 g/ha
How it was run: as §4

SMILES | A (barnyard grass) weedkilling efficacy grade [1] | B (bulrush) weedkilling efficacy grade [2] | C (oval-leafed pondweed) weedkilling efficacy grade [3] | a (transplanted rice) effect on crop grade [4] | A (barnyard grass) weedkilling efficacy grade [5] | B (bulrush) weedkilling efficacy grade [6] | C (oval-leafed pondweed) weedkilling efficacy grade [7] | D (crabgrass) weedkilling efficacy grade [8] | E (green foxtail) weedkilling efficacy grade [9] | G (wild oat) weedkilling efficacy grade [10] | H (black-grass) weedkilling efficacy grade [11] | I (Italian ryegrass) weedkilling efficacy grade [12] | K (Indian mallow) weedkilling efficacy grade [13] | L (redroot pigweed) weedkilling efficacy grade [14] | M (fig-leafed goosefoot) weedkilling efficacy grade [15] | N (chickweed) weedkilling efficacy grade [16] | O (catchweed) weedkilling efficacy grade [17] | P (birds-eye speedwell) weedkilling efficacy grade [18] | b (directly sown rice) effect on crop grade [19] | c (corn) effect on crop grade [20] | further results
CC1=C(c2ccccc2)C(=O)N(C(C)(C)C(=O)Nc2cc(F)ccn2)CO1 [B-2-25] | 5 (weed kill ratio 90% or more, (practically complete withering)) | 5 (weed kill ratio 90% or more, (practically complete withering)) | 5 (weed kill ratio 90% or more, (practically complete withering)) | 2 (weed kill ratio 20% or more, less than 40%) | 5 (weed kill ratio 90% or more, (practically complete withering)) | 5 (weed kill ratio 90% or more, (practically complete withering)) | 5 (weed kill ratio 90% or more, (practically complete withering)) | 5 (weed kill ratio 90% or more, (practically complete withering)) | 5 (weed kill ratio 90% or more, (practically complete withering)) | 5 (weed kill ratio 90% or more, (practically complete withering)) | 5 (weed kill ratio 90% or more, (practically complete withering)) | 5 (weed kill ratio 90% or more, (practically complete withering)) | 4 (weed kill ratio 70% or more, less than 90%) | 3 (weed kill ratio 40% or more, less than 70%) | 4 (weed kill ratio 70% or more, less than 90%) | 4 (weed kill ratio 70% or more, less than 90%) | 5 (weed kill ratio 90% or more, (practically complete withering)) | 5 (weed kill ratio 90% or more, (practically complete withering)) | 5 (weed kill ratio 90% or more, (practically complete withering)) | 3 (weed kill ratio 40% or more, less than 70%) | d (soybean) effect on crop grade [21]: 0 (weed kill ratio 5% or less (practically no effect)); e (wheat) effect on crop grade [22]: 1 (weed kill ratio 5% or more, less than 20%); f (beet) effect on crop grade [23]: 2 (weed kill ratio 20% or more, less than 40%); D (crabgrass) weedkilling efficacy grade [24]: 5 (weed kill ratio 90% or more, (practically complete withering)); E (green foxtail) weedkilling efficacy grade [25]: 5 (weed kill ratio 90% or more, (practically complete withering)); G (wild oat) weedkilling efficacy grade [26]: 5 (weed kill ratio 90% or more, (practically complete withering)); H (black-grass) weedkilling efficacy grade [27]: 5 (weed kill ratio 90% or more, (practically complete withering)); I (Italian ryegrass) weedkilling efficacy grade [28]: 5 (weed kill ratio 90% or more, (practically complete withering)); K (Indian mallow) weedkilling efficacy grade [29]: 4 (weed kill ratio 70% or more, less than 90%); L (redroot pigweed) weedkilling efficacy grade [30]: 2 (weed kill ratio 20% or more, less than 40%); M (fig-leafed goosefoot) weedkilling efficacy grade [31]: 4 (weed kill ratio 70% or more, less than 90%); N (chickweed) weedkilling efficacy grade [32]: 4 (weed kill ratio 70% or more, less than 90%); O (catchweed) weedkilling efficacy grade [33]: 5 (weed kill ratio 90% or more, (practically complete withering)); P (birds-eye speedwell) weedkilling efficacy grade [34]: 5 (weed kill ratio 90% or more, (practically complete withering)); b (directly sown rice) effect on crop grade [35]: 5 (weed kill ratio 90% or more, (practically complete withering)); c (corn) effect on crop grade [36]: 3 (weed kill ratio 40% or more, less than 70%); d (soybean) effect on crop grade [37]: 3 (weed kill ratio 40% or more, less than 70%); e (wheat) effect on crop grade [38]: 0 (weed kill ratio 5% or less (practically no effect)); f (beet) effect on crop grade [39]: 3 (weed kill ratio 40% or more, less than 70%)
COc1ccnc(NC(=O)C(C)(C)N2COC(C)=C(c3ccccc3)C2=O)c1 [B-2-63] | 5 (weed kill ratio 90% or more, (practically complete withering)) | 5 (weed kill ratio 90% or more, (practically complete withering)) | 4 (weed kill ratio 70% or more, less than 90%) | 0 (weed kill ratio 5% or less (practically no effect)) | 3 (weed kill ratio 40% or more, less than 70%) | 4 (weed kill ratio 70% or more, less than 90%) | 3 (weed kill ratio 40% or more, less than 70%) | 4 (weed kill ratio 70% or more, less than 90%) | 4 (weed kill ratio 70% or more, less than 90%) | 2 (weed kill ratio 20% or more, less than 40%) | 1 (weed kill ratio 5% or more, less than 20%) | 3 (weed kill ratio 40% or more, less than 70%) | 0 (weed kill ratio 5% or less (practically no effect)) | 1 (weed kill ratio 5% or more, less than 20%) | 3 (weed kill ratio 40% or more, less than 70%) | 3 (weed kill ratio 40% or more, less than 70%) | 3 (weed kill ratio 40% or more, less than 70%) | 4 (weed kill ratio 70% or more, less than 90%) | 0 (weed kill ratio 5% or less (practically no effect)) | 0 (weed kill ratio 5% or less (practically no effect)) | d (soybean) effect on crop grade [21]: 0 (weed kill ratio 5% or less (practically no effect)); e (wheat) effect on crop grade [22]: 0 (weed kill ratio 5% or less (practically no effect)); f (beet) effect on crop grade [23]: 0 (weed kill ratio 5% or less (practically no effect)); D (crabgrass) weedkilling efficacy grade [24]: 3 (weed kill ratio 40% or more, less than 70%); E (green foxtail) weedkilling efficacy grade [25]: 3 (weed kill ratio 40% or more, less than 70%); G (wild oat) weedkilling efficacy grade [26]: 0 (weed kill ratio 5% or less (practically no effect)); H (black-grass) weedkilling efficacy grade [27]: 0 (weed kill ratio 5% or less (practically no effect)); I (Italian ryegrass) weedkilling efficacy grade [28]: 1 (weed kill ratio 5% or more, less than 20%); K (Indian mallow) weedkilling efficacy grade [29]: 0 (weed kill ratio 5% or less (practically no effect)); L (redroot pigweed) weedkilling efficacy grade [30]: 0 (weed kill ratio 5% or less (practically no effect)); M (fig-leafed goosefoot) weedkilling efficacy grade [31]: 3 (weed kill ratio 40% or more, less than 70%); N (chickweed) weedkilling efficacy grade [32]: 2 (weed kill ratio 20% or more, less than 40%); O (catchweed) weedkilling efficacy grade [33]: 2 (weed kill ratio 20% or more, less than 40%); P (birds-eye speedwell) weedkilling efficacy grade [34]: 1 (weed kill ratio 5% or more, less than 20%); b (directly sown rice) effect on crop grade [35]: 0 (weed kill ratio 5% or less (practically no effect)); c (corn) effect on crop grade [36]: 0 (weed kill ratio 5% or less (practically no effect)); d (soybean) effect on crop grade [37]: 2 (weed kill ratio 20% or more, less than 40%); e (wheat) effect on crop grade [38]: 0 (weed kill ratio 5% or less (practically no effect)); f (beet) effect on crop grade [39]: 0 (weed kill ratio 5% or less (practically no effect))
